These are literature values, as cited in patent publication US10071072B2, “Method for treating neurotrauma” (N.V. Nutricia, priority 2011, dated 2018).

The series has as its system neurotrauma. The following applies: in vivo supply; King et al. J. Neurosci.

For the compound `CC/C=C\C/C=C\C/C=C\CCCCCCCC(=O)O` [α-linolenic acid], the neuroprotection in neurotrauma entry is given as “neuroprotective”.
